Reference: ChEMBL document CHEMBL5584201, “Amphiphilic tribasic galactosamines potentiate rifampicin in Gram-negative bacteria at low Mg++/Ca++concentrations” (Bioorg Med Chem Lett, 2024)
≈ marks a conversion by molar mass, not a printed value.

How the values were obtained:
Escherichia coli [1] = assay: Antibacterial activity against Escherichia coli ATCC 25922 in high concentration of Ca++ and Mg++ containing media by Mueller-Hinton broth based assay; assay type: functional
[2] = Cytotoxicity against human HepG2 cells assessed as cell viability at 9 uM relative to control; assay type: toxicity, cell-based; settings: read-out: Activity
Acinetobacter baumannii [3] = assay: Potentiation of rifampicin-induced antibacterial activity against Acinetobacter baumannii 92247 assessed as rifampicin MIC at 16 microg/ml in high concentration of Ca++ and Mg++ containing media by Mueller-Hinton broth based assay; assay type: functional; settings: dose 16 µg/ml
Escherichia coli [4] = assay: Potentiation of rifampicin-induced antibacterial activity against Escherichia coli […] assessed as fold change in rifampicin MIC at 2 to 8 microg/ml in high concentration of Ca++ and Mg++ containing media by Mueller-Hinton broth based assay; assay type: functional; settings: dose 2-8 µg/ml
Acinetobacter baumannii [5] = assay: Potentiation of rifampicin-induced antibacterial activity against multidrug resistant Acinetobacter baumannii AB031 assessed as fold change in rifampicin MIC at 1/4 MIC in low salt containing media by Mueller-Hinton broth based assay; assay type: functional
Acinetobacter baumannii [6] = assay: Antibacterial activity against Acinetobacter baumannii 92247 in high concentration of Ca++ and Mg++ containing media by Mueller-Hinton broth based assay; assay type: functional
Escherichia coli [7] = assay: Potentiation of rifampicin-induced antibacterial activity against Escherichia coli ATCC 25922 assessed as fold change in rifampicin MIC at 16 microg/ml in high concentration of Ca++ and Mg++ containing media by Mueller-Hinton broth based assay; assay type: functional; settings: dose 16 µg/ml
Escherichia coli [8] = assay: Antibacterial activity against Escherichia coli […] in high concentration of Ca++ and Mg++ containing media by Mueller-Hinton broth based assay; assay type: functional
Acinetobacter baumannii [9] = assay: Potentiation of rifampicin-induced antibacterial activity against Acinetobacter baumannii ATCC 17978 assessed as fold change in rifampicin MIC at 2 to 8 microg/ml in high concentration of Ca++ and Mg++ containing media by Mueller-Hinton broth based assay; assay type: functional; settings: dose 2-8 µg/ml
Pseudomonas aeruginosa = assay: Potentiation of rifampicin-induced antibacterial activity against Pseudomonas aeruginosa PAO1 assessed as rifampicin MIC at 2 to 8 microg/ml in high concentration of Ca++ and Mg++ containing media by Mueller-Hinton broth based assay; assay type: functional; settings: dose 2-8 µg/ml
Escherichia coli [10] = assay: Potentiation of rifampicin-induced antibacterial activity against Escherichia coli ATCC 25922 assessed as fold change in rifampicin MIC at 2 to 8 microg/ml in high concentration of Ca++ and Mg++ containing media by Mueller-Hinton broth based assay; assay type: functional; settings: dose 2-8 µg/ml
Escherichia coli [11] = assay: Potentiation of rifampicin-induced antibacterial activity against Escherichia coli […] assessed as rifampicin MIC at 2 to 8 microg/ml in high concentration of Ca++ and Mg++ containing media by Mueller-Hinton broth based assay; assay type: functional; settings: dose 2-8 µg/ml

Q: Which MIC (Escherichia coli [1]) does the source give for `CCCCCCCCO[C@@H]1O[C@H](CN)[C@H](N)[C@H](OCc2ccc3ccccc3c2)[C@H]1N` here?
A: 64 µg/mL (≈ 149 µM)

Q: And the viability at 9 µM [2]?
A: 85%

Q: What about the MIC (Acinetobacter baumannii [3]) of the same compound?
A: 16 µg/mL

Q: What about the “fold change (FC)” value (Escherichia coli [4]) of the same compound?
A: 1

Q: What about the “fold change (FC)” value (Acinetobacter baumannii [5]) of the same compound?
A: 64

Q: What about the MIC (Acinetobacter baumannii [6]) of the same compound?
A: ≥ 64 µg/mL

Q: What about the “fold change (FC)” value (Escherichia coli [7]) of the same compound?
A: 1

Q: And the MIC (Escherichia coli [8])?
A: 64 µg/mL (≈ 149 µM)

Q: What about the “fold change (FC)” value (Acinetobacter baumannii [9]) of the same compound?
A: 1

Q: What about the MIC (Pseudomonas aeruginosa) of the same compound?
A: 8 µg/mL

Q: And the “fold change (FC)” value (Escherichia coli [10])?
A: 1

Q: And the MIC (Escherichia coli [11])?
A: 2 µg/mL
